Assay results from US20060269942A1, “In situ click chemistry method for screening high affinity molecular imaging probes” (priority 2005, published 2006).
Read-outs that look alike come from different tables or passages of the source.

Legend:
[1] = target: T1, human carbonic anhydrase II (Homo sapiens, UniProt P00918); assay: Titration of human carbonic anhydrase II with DNSA (fluorescence); assay type: binding; settings: enzyme 200 nM in pH 7.4 phosphate buffer, titrated with DNSA; read-out: dissociation constant (Kd) of CA·DNSA
T1 construct: Carbonic anhydrase II from human erythrocytes; purchased Sigma Aldrich C-6165; host or cells: human erythrocytes (natural source)
Description: (§1) General. Carbonic anhydrase II from bovine erythrocytes (Sigma-Aldrich, catalog number C2522; lot number 083K9295, 4,014 Wilbur-Anderson units/mg, 90% protein content by Biuret) was used for in situ click chemistry experiments and for the determination of binding constants. We tested the protein by SDS gel electrophoresis and found it to display a single band corresponding to 29-30,000 molecular weight units. Carbonic anhydrase II from human erythrocytes (Sigma Aldrich, catalog number C-6165, 4,260 wilbur-anderson units/mg) was used for the determination of binding affinities for the human enzyme. All fluorescence measurements were performed on a SPECTRA MAX GEMINI fluorescence plate reader at 37° C. […]
(§2) General. The fluorescence competition assay developed by Whitesides et al. (J. Am. Chem. Soc. 1994, 116, 5057) and J. C. […] The assay is based on the observation that the only fluorescence signal detected at 460 nm upon excitation at 290 nm, an absorption minimum for DNSA, is that of the DNSA·CA complex. With increasing sample concentration the fluorescence intensity due to DNSA·CA decreases as a result of competition with the test compound, allowing the determination of dissociation constants from Scatchard plots. […] The Kd values were determined from Scatchard plots using the equation below as described by Whitesides et.al. [CA·Inh]/[CA]tot·[Inh]=K11inh−K11inh{[CA·Inh]+[CA·DNSA]}/([CA]tot) […]

[2] = target: T2, bovine carbonic anhydrase II (Bos taurus, UniProt P00921); assay: Titration of bovine carbonic anhydrase II with DNSA (fluorescence); assay type: binding
T2 construct: Carbonic anhydrase II from bovine erythrocytes; purchased Sigma-Aldrich C2522; host or cells: bovine erythrocytes (natural source)
Description: as §1, §2

carbonic anhydrase II = target: T3, carbonic anhydrase II (Bos taurus, UniProt P00921); assay: DNSA fluorescence competition binding assay for carbonic anhydrase II; settings: in situ hit of FIG. 4 screen; enzyme species not stated at the place (bovine CA-II used for the screen and binding constants)
T3 construct: Carbonic anhydrase II from bovine erythrocytes; purchased Sigma-Aldrich C2522; host or cells: bovine erythrocytes (natural source)
Description: as §1, §2

T2 sequence (P00921 whole entry): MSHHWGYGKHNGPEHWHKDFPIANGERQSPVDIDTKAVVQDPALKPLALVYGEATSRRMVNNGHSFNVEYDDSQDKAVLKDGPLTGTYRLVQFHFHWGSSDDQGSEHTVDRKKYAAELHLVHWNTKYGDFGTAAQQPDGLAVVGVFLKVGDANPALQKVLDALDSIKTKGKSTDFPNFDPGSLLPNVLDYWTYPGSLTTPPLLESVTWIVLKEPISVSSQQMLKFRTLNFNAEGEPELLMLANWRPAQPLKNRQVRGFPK
T3 sequence (P00921 whole entry): as above

Row | Structure (SMILES) | Kd [1] [nM] | Kd ([2]; determined by titration experiments, value used in the mass balance, enzyme species not stated, read-out: dissociation constant Kd for DNSA) [nM] | Kd ([2]; enzyme 200 nM in pH 7.4 phosphate buffer, titrated with DNSA, read-out: dissociation constant (Kd) of CA·DNSA) [nM] | Kd (carbonic anhydrase II) [nM]
1 | CN(C)c1cccc2c(S(N)(=O)=O)cccc12 [DNSA] | 425 | 390 | 393 | 
2 | CC(C)[C@@H](C(=O)NCc1cc(F)ccn1)n1cc(-c2ccc(S(N)(=O)=O)cc2)nn1 [the product] |  |  |  | 0.5
